Test results: patent US20050282745A1, “Non-mammalian GnRH analogs and uses thereof in regulation of fertility and pregnancy” (priority 2001, published 2005)
Non-standard residues stand in square brackets, D forms with d. Residues, ends and D or L forms follow the SMILES beside them. pGlu = O=C1CC[C@@H](C(=O)O)N1; azaGly = NNC(=O)O

Tests used:
[1] = tested on: baboon uterine tissue GnRH receptor; assay: Baboon uterine tissue GnRH receptor binding
From the text: These chicken II GnRH analogs (SEQ ID NO: 2) may have particular applicability for regulation of implantation and in uterine tissue conditions, such as endometriosis, abnormal uterine bleeding, and leiomyomas. Thus, high affinity receptors for chicken II GnRH analogs (SEQ ID NO: 2) have been defined in baboon ovary and uterus tissues.

[2] = tested on: early human placental explants; assay: Placental explant perifusion, hCG release; assay type: cell-based; details: for pattern of hCG response: continuous perifusion
From the text: Placental tissues that are normally discarded were obtained from unidentified patients following first trimester pregnancy termination (early human placental explants). Tissue fragments, dissected of vessels and membranes, were placed in a perfusion system for study of 20 replicate chambers of the same tissue. This allows for simultaneous dose-response studies to be performed. To achieve this specific aim, explants from a given placenta were placed in 20 replicate chambers and perfused with basal medium for three hours at a rate of 6 ml/hr (dead volume of the system at 6 ml/hr is ten minutes). After three hours of equilibration, the analog was added to the basal perfusing medium. Quaduplicate chambers were made for chicken II GnRH analog (SEQ ID NO: 2) at 0, 10^−9, 10^−8, 10^−7, 10^−6 M and Buserelin (SEQ ID NO: 10) at 10^−7 M. The effluent medium of each chamber was collected after a three hour equilibration period. Two basal samples, at half hour intervals were collected, media with test substances was initiated and effluent medium collection continued for four and one half hours at thirty minute intervals. The hCG release was analyzed in each of these experiments. FIGS. 16 and 17 illustrate a typical response. […] Maximal response was observed within minutes after initiation of perfusion at 10^−8 M, with possible down regulation beginning after five hours at 10^−6 M as illustrated in FIG. 18.
In additional experiments, early gestation human placentas were perfused for six hours with medium supplemented with estradiol, progesterone, bovine serum albumin, and antibiotics (basal medium). Twenty replicate chambers were perifused with basal medium for two hours, then triplicate chambers were perifused with the medium containing either Buserelin (SEQ ID NO: 10), or 10^−9, 10^−8, 10^−7, 10^−6 M of a chicken II GnRH analog (SEQ ID NO: 2), leaving five control chambers. The eluted medium was collected at thirty minute intervals, starting one hour prior to the addition of GnRH analogs and throughout five hours of treatment. hCG released into the effluent media, as well as the production of GnRH, were measured using sensitive and specific radioimmunoassays. The release of hCG at each time point was normalized to its zero treatment release and the release throughout the treatment period and its average release was compared for various treatment regimens. These studies were repeated using tissues from three different first trimester placentas. The results of this experiment are illustrated in FIG. 20.

[3] = tested on: human granulosa cells receptor; assay: Human granulosa cell receptor binding
From the text: Due to the limited number of cells it was not possible to precisely define the affinity of this receptor.

rhesus monkey = assay: Contraceptive activity in mated rhesus monkeys, osmotic mini-pump; assay type: in vivo
From the text: In these studies we examined the effect of a stable analog of chicken II GnRH on ovarian steroidogenesis, implantation and maintainence of pregnancy in the rhesus monkey. We administered this chicken II GnRH analog (SEQ ID NO: 2) or saline via osmotic mini-pumps from Day 1-6, Day 6-11 or Day 11-17 to regularly cycling monkeys mated with fertile males around the time of ovulation. Circulating estradiol (E2) and progesterone (P) in the luteal phase was observed as well as cycle length in this and subsequent cycle. Implantation and pregnancy were confirmed by circulating CG and continued progesterone production. […] In animals treated on day 6-11 or days 11-17, no effect on luteinization or cycle length was noted; and two of five (40.0%), and one of three animals (33.3%), respectively, implanted with normal pregnancies resulting.

[4] = tested on: human placental GnRH receptor; assay: Placental GnRH receptor binding, 125I-Buserelin label; details: Buserelin label
[5] = tested on: chorionic peptidase-1 (C-ase-1)
Procedure: Using the incubation system developed for the C-ase-1 activity, the degradation of each analog was tested. […] These studies were done using the C-ase-1 enzyme activity assay as described previously. […] The product formed was calculated by subtraction, and its inverse plotted against the inverse of the original substrate concentrations to determine the nature of the competition. The Ki was to be determined by plotting the inverse of the product that formed verses the inhibitor used.
The concentration of the product of the degraded GnRH was quantified by subtracting the remaining mammalian GnRH from the starting concentrations of mammalian GnRH. […] The Ks for the degradation of mammalian GnRH was calculated from the x axis intercept using Lineweaver-Burke double reciprocal plot of the concentration of the product formed versus the concentration of the substrate used.
The reaction was stopped by heating at 85° C. for 10 minutes. The remaining GnRH was determined using a specific radioimmunoassay. The formation of product, i.e., the N-terminal nonapeptide of GnRH, was calculated by subtraction and its inverse was plotted versus the inverse of the initial substrate to determine the Ks of the reaction. […] The relative potency of each analog was compared.
Using the incubation system developed for the C-ase-1 activity, the degradation of each analog was studied. […] The inverse of the product was plotted against the inverse of the original substrate concentrations to determine Ks of the competition. The Ki was determined by plotting the inverse of the product formed verses the inhibitor used.

With N=C(N)NCCC[C@@H](NC(=O)[C@H](Cc1c[nH]cn1)NC(=O)[C@H](CO)NC(=O)[C@H](Cc1c[nH]c2ccccc12)NC(=O)[C@H](Cc1c[nH]cn1)NC(=O)[C@@H]1CCC(=O)N1)C(=O)N[C@@H](Cc1c[nH]c2ccccc12)C(=O)N[C@@H](Cc1ccc(O)cc1)C(=O)N1CCC[C@H]1C(=O)NNC(N)=O [D-Arg(6)-chicken II GnRH-aza-Gly(10)-amide] ([pGlu]HWSH[dR]WYP[azaGly]-NH2) the “binding affinity, in words” value [1] was “high binding affinity”, the “concentration giving maximal hCG response” value ([2]; 10^−9 to 10^−6 M tested) was 10^−8 M and the “pattern of hCG response” value ([2]; listed as Chicken II GnRH analog) was “dose related biphasic response”. The “pattern of hCG response” value ([2]; listed as chicken II GnRH analog) was “biphasic stimulation of hCG”, the receptor binding [3] was “receptor binding for the GnRH analog was observed” and the pregnancies (rhesus monkey; treated Day 1-6) was “no pregnancies resulted”. The “effect on progesterone production or cycle length” value (rhesus monkey; treated day 1-6) was “no significant effect”, the “animals implanted with normal pregnancies” value (rhesus monkey; treated day 6-11, two of five) was 40.0% and the “effect on luteinization or cycle length” value (rhesus monkey; treated day 6-11 or days 11-17) was “no effect”. For the same compound, the “animals implanted with normal pregnancies” value (rhesus monkey; treated days 11-17, one of three) was 33.3%, the “receptor binding potency compared with chicken II GnRH isoform or Buserelin” value ([4]; Example II) was 2 fold and the “receptor binding potency compared with mammalian GnRH” value ([4]; Example II) was 60 fold. The Kd ([4]; term placental membranes, read-out: dissociation constant (Kd)) was 0.175 ± 0.059 µM and the “degradation by / competition for C-ase-1, in words” value [5] was “essentially not degraded”.
